Measurements from US20260159474A1, “Aminoindane Compounds and Compositions and Methods of Their Therapeutic Use” (Solvonis Therapeutics Ireland Holdings Limited, priority 2021, published 2026).
Read-outs that look alike come from different tables or passages of the source.

Tests used:
hSERT = biological target: T1, hSERT (Homo sapiens, UniProt P31645); assay: SERT uptake SPA in hSERT-CHO cells; format: cell-based; settings: for SERT/DAT Uptake Ratio: calculated as 1/SERT IC50:1/DAT IC50
T1 construct: expressed in transfected cells; host or cells: CHO (hSERT-CHO)
Method: Briefly, on experiment days, hDAT-CHO cells were detached using Versene and added at a density of approximately 300,000 cells/mL to the SPA Mixture, which contains the following components in Assay Buffer (20 mM HEPES, 145 mM NaCl, 5 mM KCl, 2 mM CaCl2), 1 mM MgCl2, 5.5 mM glucose, 0.01% Pluronic F127, pH 7.3): 0.75 mg/mL SPA Imaging beads (RPNQ0001, PerkinElmer), 10 μM pargyline and 80 nM of [3H]-dopamine (NET673, PerkinEImer). The SPA Mixture was added 20 μL/well to 384 well plates containing 0.1 μL/well of test compound in neat DMSO (11 points of 1:5 serial dilution, 0.5% DMSO final) or 0.1 μL of DMSO (total uptake) or 0.1 μL of the standard inhibitor indatraline (at 1 μM final concentration, as nonspecific uptake). Plates were sealed with a Top-seal A and read using a Microbeta counter (PerkinElmer) after 45 minutes of incubation at room temperature. […] The SPA Mixture was added 20 μL/well to 384 well plates containing 0.1 μL/well of test compound in neat DMSO (11 points of 1:5 serial dilution, 0.5% DMSO final), 0.1 μL of DMSO (total uptake), or 0.1 μL of the standard inhibitor indatraline (1 μM, nonspecific uptake). Plates were sealed with a Top-seal A and read using a Microbeta counter (PerkinElmer) after 120 minutes of incubation at room temperature.
For both tests, the raw experimental data (cpm) were elaborated for the determination of pIC50/IC50 values as % inhibition of specific uptake. Concentration-response curves of MDMA, MDDMA, citalopram and GBR-12909 were used as internal standards in all experiments, and the signal window was monitored in each plate performing Z′ calculations, as described in Zhang et al., J Biomol Screen.

[1] = Intrinsic clearance in rat liver microsomes; format: in vitro ADME; settings: for microsomal CLint at 0.5 μM: pH 7.4, read-out: Cl (μL/min/mg protein) - Rat Microsomes
Method: Methods: The general procedure involved incubating test compounds with liver microsomes and subsequently detecting the compounds to determine intrinsic clearance. Clearance was estimated from the rate of depletion k (min-1), the volume of the incubation V (mL), and the amount of microsomal proteins in the incubation M (mg). Intrinsic clearance is defined by the following equation: Clint=k*V/M.
Values for CLint are expressed as μL/min/mg liver microsomes. Verapamil and dextromethorphan were used as positive controls for CYP3A4 and CYP2D6 isoforms, respectively, to confirm metabolic activity. Stock solutions were prepared in DMSO for therapeutic compounds and positive controls verapamil and dextromethorphan (10 mM for all). Working solutions were prepared by diluting stock in MeOH to reach […]. However, this concentration can be varied, e.g., when the test item is not soluble in the selected solvent.
Prior to experimentation, frozen liver microsomes were thawed in a water bath at 37° C. and kept on ice until use. The microsomes were then diluted with 50 mM potassium phosphate buffer pH 7.4 to a protein concentration of 0.56 mg/mL. To prepare test and control items in final incubation conditions, 5 μL of test compound and positive control working solutions were added to 445 μL of microsomes incubation mixture at 0.56 mg/mL and 50 μL of regenerating system.
As it relates to the automated incubation procedure for microsomes incubation, the following procedure was followed. Briefly, 150 μL of quenching solution (ACN containing an appropriate Internal Standard, i.e. Rolipram and Diclofenac for positive and negative ion mode, respectively) was manually dispensed or dispensed by using the Hamilton system in each well of 96 deep well 1 mL plates. Next, 800-1000 μL-aliquots of NADPH regenerating system were pre-warmed at 37° C. for 5 minutes. 5 μL of 50 µM test items and control were added to 445 μL of the 0.56 mg/mL microsomes solution, and the incubation mixture was pre-warmed in a 96 deep well 2 mL plate (incubation plate) at 37° C. for 5 minutes. The incubation reactions were initiated by adding 50 μL of pre-warmed NADPH regenerating system to the incubation mixtures.
50 μL-aliquots were sampled from incubation mixtures at: 0, 3, 10, 15, 30, and 45 minutes. The samples were centrifuged at 3,000 rpm for 10 minutes and further diluted in order to optimize the analytical condition prior to the LC MS/MS or Rapid Fire-MS/MS analysis. Incubations of test items were run in duplicate (n=2) with a single positive control (n=1). For sample analysis, an LC-MS/MS system was used to monitor the test samples/control to internal standard peak area ratios as representative of the test or control item's concentration. Data from test item incubation was processed to give mean values where applicable. Metabolic stability was calculated from the ratio of peak area of the remaining test or control item with internal standard versus time.
Peak areas for test and control items were integrated using Integrator Software from Agilent or Analyst or MultiQuant Software from AB SciexTM and were exported to XLFit or Morphit (The Edge), which were designed to calculate in vitro metabolic stability parameters. The integrated peak areas of the test and control items at the selected time points were divided by the respective peak areas of the IS, and the percent of parent remaining was calculated by normalizing the peak area ratio of parent to IS at 0 min. Observed rate constant (kobs) for parent degradation was calculated by determining the slope of the line of the graph of the natural log of percentage parent remaining versus time of incubation. This was scaled for the protein in the incubation relative to that in the liver.

[2] = [3H]-serotonin uptake, hSERT-CHO cells, read-out: SERT Uptake SPA (pIC50) (converted)

T1 sequence (P31645 whole entry): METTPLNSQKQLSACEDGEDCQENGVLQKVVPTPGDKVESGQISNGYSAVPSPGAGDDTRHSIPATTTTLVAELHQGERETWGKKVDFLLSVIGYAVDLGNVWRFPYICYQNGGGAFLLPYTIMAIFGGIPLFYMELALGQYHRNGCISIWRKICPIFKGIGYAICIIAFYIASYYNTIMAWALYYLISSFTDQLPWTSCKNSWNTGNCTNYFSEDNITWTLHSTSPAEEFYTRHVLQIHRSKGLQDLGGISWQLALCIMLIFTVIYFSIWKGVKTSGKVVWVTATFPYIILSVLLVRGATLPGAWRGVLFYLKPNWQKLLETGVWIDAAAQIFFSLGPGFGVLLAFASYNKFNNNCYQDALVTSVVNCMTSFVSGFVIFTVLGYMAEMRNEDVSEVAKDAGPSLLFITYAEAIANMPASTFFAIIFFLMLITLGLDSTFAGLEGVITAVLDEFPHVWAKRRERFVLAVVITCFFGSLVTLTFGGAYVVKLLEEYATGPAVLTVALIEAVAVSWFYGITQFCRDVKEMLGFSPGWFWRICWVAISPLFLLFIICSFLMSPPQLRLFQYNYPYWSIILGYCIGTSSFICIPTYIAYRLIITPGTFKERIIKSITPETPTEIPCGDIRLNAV

COC(=O)c1cc2c(cc1OC)CC(N)C2 (stereo not drawn) [CMP-401]
IC50 (hSERT; [2]): 3.98 µM | SERT/DAT Uptake Ratio (hSERT): 22 | microsomal CLint at 0.5 μM [1]: 121 µL/min/mg

COC(=O)COc1ccc2c(c1)CC(N)C2 (stereo not drawn) [CMP-402]
IC50 (hSERT; [2]): 63.1 µM | SERT/DAT Uptake Ratio (hSERT): 1.4 | Cl (μL/min/mg protein) - Rat Microsomes [1]: greatest clearance | microsomal CLint at 0.5 μM [1]: 2050 µL/min/mg

COC(=O)c1ccc2c(c1)CC(N)C2 (stereo not drawn) [CMP-405, 2-aminoindane-5-methylcarboxylate]
IC50 (hSERT; [2]): 7.94 µM | microsomal CLint at 0.5 μM [1]: 143 µL/min/mg

CNC(C)Cc1ccc2c(c1)OCO2 (stereo not drawn) [MDMA]
SERT Uptake SPA (pIC50) (hSERT; [3H]-serotonin uptake, hSERT-CHO cells): 6.0 | SERT/DAT Uptake Ratio (hSERT): 2.1 | Cl (μL/min/mg protein) - Rat Microsomes [1]: 395 μL/min/mg protein

COc1ccc2c(c1)CC(N)C2 (stereo not drawn) [MEAI, 5-methoxy-2-aminoindane]
IC50 (hSERT): 3.98 µM | SERT/DAT Uptake Ratio (hSERT): 9 | microsomal CLint at 0.5 μM [1]: 156 µL/min/mg

COc1cc2c(cc1C)CC(N)C2 (stereo not drawn) [MMAI, 5-methoxy-6-methyl-2-aminoindane]
IC50 (hSERT): 1 µM | SERT/DAT Uptake Ratio (hSERT): 52 | microsomal CLint at 0.5 μM [1]: 200 µL/min/mg
